Here are results for four compounds from US8039510B2, “Methods of making and using theaflavin, theaflavin-3-gallate, theaflavin-3′-gallate and theaflavin 3,3′-digallate and mixtures thereof” (Nashai Biotech, LLC, priority 2001, dated 2011).

The subject of this test is Male Sprague-Dawley rats. Put plainly: Lipid profile of rats fed cholesterol diet plus theaflavins or catechin for eight weeks. The class given is in vivo, rat. Particulars: for HDL / LDL / TC / TG: rat plasma, eight weeks; for reducing plasma levels of TC, LDL-C and TG, compared with catechin: rats. Here is the method: Male Sprague-Dawley rats weighing 100 g to 130 g were divided into nine groups of ten rats. The animals were individually housed in stainless-steel cages with screen bottoms in a room maintained at between 22° C. and 24° C. They were fed stationary feedstuff and water as follows as described in Table 1. In addition the rats in Group TF1-1, TF1-2 or TF1-3 were fed pure theaflavin in a dosage of 1 mg/kg/day, 2 mg/kg/day and 4 mg/kg/day, respectively. The animals in group TF2A-2, TF2B-2 or RF3-2 were fed pure theaflavin-3-gallate, theaflavin-3′-gallate and theaflavin-3,3′-digallate, respectively in a dosage of 2 mg/kg/day. The animals in group CA-1 and CA-2 were fed catechins in a dosage of 1 mg/kg/day or 2 mg/kg/day, respectively.
The Sprague Dawley rats were fed the above diets for eight weeks before sampling. The rats were not fed for 12 hours prior to sampling. The rats were given either theaflavin, theaflavin-3-gallate, theaflavin-3′-gallate, theaflavin-3,3′-digallate or catechin one hour in advance of collecting the blood sample.

The mark [1] stands for this setting: group TF1-3: 4 mg/kg/day per text (Table 1 prints 3).

With `O=C(O[C@@H]1Cc2c(O)cc(O)cc2O[C@@H]1c1cc(=O)c(O)c2c(O)c(O)cc([C@H]3Oc4cc(O)cc(O)c4C[C@H]3O)c2c1)c1cc(O)c(O)c(O)c1` [theaflavin-3-gallate], the “reducing plasma levels of TC, LDL-C and TG, compared with catechin” value (from here on “reducing plasma levels of TC”) is “more effective”. Further, for the setting “2 mg/kg/day”, the HDL is 49.2 ± 1.9^3, the LDL is 32.2 ± 3.7^1, the TC is given as 97.3 ± 8.4^1 and the TG is 95.7 ± 10.5^1.

As to `O=c1c(O)cc([C@H]2Oc3cc(O)cc(O)c3C[C@H]2O)cc2c([C@H]3Oc4cc(O)cc(O)c4C[C@H]3O)cc(O)c(O)c12` [theaflavin], the “reducing plasma levels of TC” value was “more effective”. Besides, where the note is “1 mg/kg/day”, the HDL is listed as 48.8 ± 1.7^3, the LDL is 45.6 ± 3.1^1 and the TC is 116.3 ± 8.2^1. Moreover, the TG (1 mg/kg/day, mean ± spread) was 108.1 ± 13.8^2. Where the note is “2 mg/kg/day”, the HDL is 49.2 ± 2.1^3, the LDL is 34.6 ± 3.7^1, the TC is 101.3 ± 7.9^1 and the TG is on record as 97.4 ± 11.6^1. Under setting [1], the HDL is on record as 49.4 ± 1.9^3, the LDL is reported as 25.3 ± 2.2^1, the TC is given as 90.8 ± 7.1^1 and the TG is 87.7 ± 12.2^1.

Regarding theaflavin-3,3′-digallate, the “reducing plasma levels of TC” value is “more effective”. Besides, for the setting “2 mg/kg/day”, the HDL was 49.3 ± 1.9^3, the LDL is reported as 31.2 ± 4.1^1, the TC is given as 95.5 ± 7.4^1 and the TG is 95.36 ± 9.2^1.

Consider theaflavin-3′-gallate, for which the “reducing plasma levels of TC” value is “more effective”. For the setting “2 mg/kg/day”, the HDL is 49.3 ± 2.7^3, the LDL is listed as 32.4 ± 3.3^1, the TC was 97.8 ± 8.5^1 and the TG is 96.2 ± 10.2^1.
